Values after ≈ are worked out from the molar mass of the structure shown.
Key:
[1] = Antiinflammatory activity in human neutrophils assessed as inhibition of fMLP/cytochalasin B-induced elastase release; type: functional, cell-based; details: Neutrophil
[2] = Antiinflammatory activity in human neutrophils assessed as inhibition of fMLP/cytochalasin B-induced superoxide anion generation at 10 ug/mL; type: functional; details: Neutrophil
[3] = system: DU-145; assay: Cytotoxicity against human DU145 cells; type: functional, cell-based
[4] = Cytotoxicity against human KBVIN cells; type: functional, cell-based
[5] = system: KB; assay: Cytotoxicity against human KB cells; type: functional, cell-based
[6] = Antiinflammatory activity in human neutrophils assessed as inhibition of fMLP/cytochalasin B-induced superoxide anion generation; type: functional, cell-based; details: Neutrophil
[7] = system: A549; assay: Cytotoxicity against human A549 cells; type: functional, cell-based
[8] = Antiinflammatory activity in human neutrophils assessed as inhibition of fMLP/cytochalasin B-induced elastase release at 10 ug/mL; type: functional; details: Neutrophil
[9] = system: MDA-MB-231; assay: Cytotoxicity against human MDA-MB-231 cells; type: functional, cell-based
[10] = system: MCF7; assay: Cytotoxicity against human MCF7 cells; type: functional, cell-based
[11] = Cytotoxicity against human Hep3B cells; type: functional, cell-based, Hep 3B2
[12] = system: Ca9-22; assay: Cytotoxicity against human Ca9-22 cells; type: functional, cell-based
[13] = system: HepG2; assay: Cytotoxicity against human HepG2 cells; type: functional, cell-based

IC50 [1] [µM] | IC50 [6] [µM] | SMILES | IC50 [3] [µM] | IC50 [4] [µM] | IC50 [5] [µM] | IC50 [7] | other results
13.2 | – | O=C1C=C2CC3(OC(=O)c4ccccc4)COc4cc(OC(=O)c5ccccc5)ccc4C3=C2C=C1OC(=O)c1ccccc1 (stereo not given) | – | – | – | – | inhibition at 10 µg/mL [2]: 14.1%
13.6 | 4.65 | COC1=CC2=C3c4ccc(OC)cc4OCC3(OC)CC2=CC1=O (stereo not given) | 17.5 | 16.9 | 15.2 | > 20 µM | –
– | 4.52 | COc1ccc2c(c1)OCC1(O)Cc3cc(OC)c(OC)cc3C21 (stereo not given) | 13.8 | 7.6 | 10.5 | > 20 µM | inhibition at 10 µg/mL [8]: 35.8%
3.28 | 1.65 | CCC(=O)OC1=CC2=C3c4ccc(OC(=O)CC)cc4OCC3(O)CC2=CC1=O (stereo not given) | 7.1 | – | 7.7 | 7.8 µM | –
15.5 | – | CCN(CC)C(=O)OC1=CC2=C3c4ccc(OC(=O)N(CC)CC)cc4OCC3(O)CC2=CC1=O (stereo not given) | – | – | – | – | inhibition at 10 µg/mL [2]: -7%
– | – | COc1ccc2c(c1)OC/C(=C\c1ccc(OC)c(OC)c1)C2=O | > 20 | 18.3 | > 20 | > 20 µM | –
– | 1.9 | COc1ccc2c(c1)OCC1(OC1c1ccc(OC)c(OC)c1)C2=O (stereo not given) | 10.6 | 6.4 | 9.8 | > 20 µM | inhibition at 10 µg/mL [8]: 43.7%
8.76 | – | O=C1C=C2CC3(O)COc4cc(OCc5ccccc5)ccc4C3=C2C=C1OCc1ccccc1 (stereo not given) | – | – | – | – | inhibition at 10 µg/mL [2]: 33.4%
– | – | COC1=CC2=C3c4ccc(OC)cc4OCC3(O)CC2=CC1=O (stereo not given) | – | – | – | – | inhibition at 10 µg/mL [8]: 26.8%; inhibition at 10 µg/mL [2]: 18.6%
8.37 | 4.35 | CCOC1=CC2=C3c4ccc(OCC)cc4OCC3(O)CC2=CC1=O (stereo not given) | 11 | 16.5 | 11.3 | 15.3 µM | –
– | – | CN(C)C(=O)OC1=CC2=C3c4ccc(OC(=O)N(C)C)cc4OCC3(O)CC2=CC1=O (stereo not given) | – | – | – | – | inhibition at 10 µg/mL [8]: 11.4%; inhibition at 10 µg/mL [2]: 16.4%
10.1 | 19.7 | CC(C)=CCOC1=CC2=C3c4ccc(OCC=C(C)C)cc4OCC3(O)CC2=CC1=O (stereo not given) | – | – | – | – | –
11.8 | 16.2 | C=CCOC1=CC2=C3c4ccc(OCC=C)cc4OCC3(OCC=C)CC2=CC1=O (stereo not given) | – | – | – | – | –
– | 23.9 | CCOC1=CC2=C3c4ccc(OCC)cc4OCC3(OCC)CC2=CC1=O (stereo not given) | 18.1 | 17.9 | 18.9 | > 20 µM | inhibition at 10 µg/mL [8]: 35.5%
16.5 | 19.7 | C=CCOC1=CC2=C3c4ccc(OCC=C)cc4OCC3(O)CC2=CC1=O (stereo not given) | 9.1 | – | 5.4 | 9.4 µM | –
– | 18.7 | CC(=O)OC1=CC2=C3c4ccc(OC(C)=O)cc4OCC3(O)CC2=CC1=O (stereo not given) | 8.2 | – | 10 | 8.1 µM | inhibition at 10 µg/mL [8]: 40.9%
1.9 | 1.2 | CCC(=O)OC1=CC2=C3c4ccc(OC(=O)CC)cc4OCC3(OC(=O)CC)CC2=CC1=O (stereo not given) | 11 | 11.3 | 6.6 | 13.5 µM | –
10.2 | 8.38 | COc1ccc2c(c1)OCC(O)(Cc1ccc(OC)c(OC)c1)C2O (stereo not given) | > 20 | > 20 | > 20 | > 20 µM | –
14.2 | 4 | O=C1C=C2CC3(O)COc4cc(O)ccc4C3=C2C=C1O (stereo not given) [BRAZILEIN] | – | – | – | 9.68 µg/mL | IC50 [9]: 2.36 µg/mL (≈ 8.3 µM); IC50 [10]: 3.96 µg/mL (≈ 13.9 µM); IC50 [11]: 3.42 µg/mL (≈ 12 µM); IC50 [12]: 8.63 µg/mL (≈ 30.4 µM); IC50 [13]: 3.15 µg/mL (≈ 11.1 µM)
16.7 | 4.6 | Oc1ccc2c(c1)OC[C@]1(O)Cc3cc(O)c(O)cc3[C@H]21 [BRAZILIN] | – | – | – | 15.6 µg/mL | IC50 [9]: 3.09 µg/mL (≈ 10.8 µM); IC50 [10]: 6.29 µg/mL (≈ 22 µM); IC50 [11]: 4.54 µg/mL (≈ 15.9 µM); IC50 [12]: 9.78 µg/mL (≈ 34.2 µM); IC50 [13]: 3.47 µg/mL (≈ 12.1 µM)
– | – | COc1cccc2c1C(=O)c1c(O)c3c(c(O)c1C2=O)C[C@@](O)(C(=O)CO)C[C@@H]3O[C@H]1C[C@H](N)[C@H](O)[C@H](C)O1 [DOXORUBICIN] | – | – | – | 0.32 µg/mL | IC50 [9]: 1.05 µg/mL (≈ 1.93 µM); IC50 [10]: 0.42 µg/mL (≈ 0.773 µM); IC50 [11]: 0.56 µg/mL (≈ 1.03 µM); IC50 [13]: 0.34 µg/mL (≈ 0.626 µM)
– | – | CC(=O)O[C@H]1C(=O)[C@@]2(C)[C@H]([C@H](OC(=O)c3ccccc3)[C@]3(O)C[C@H](OC(=O)[C@H](O)[C@@H](NC(=O)c4ccccc4)c4ccccc4)C(C)=C1C3(C)C)[C@]1(OC(C)=O)CO[C@@H]1C[C@@H]2O [PACLITAXEL] | – | 0.00109 | 0.00155 | 0.00193 µM | –

SMILES | IC50 [1] [µM] | IC50 [6] [µM] | IC50 [3] [µM] | IC50 [4] [µM] | IC50 [5] [µM] | IC50 [7] | other results
c1ccc2c(c1)[I+]c1ccccc1-2 [DIPHENYLENEIODONIUM] | – | 0.7 | – | – | – | – | –

From ChEMBL document CHEMBL1159056, “Antitumor agents. 271: total synthesis and evaluation of brazilein and analogs as anti-inflammatory and cytotoxic agents” (Bioorg Med Chem Lett, 2010)
